Test results as given in patent US20100324017A1, “ACYLGUANIDINE DERIVATIVE” (priority 2007, published 2010).

Tests used:
human 5-HT5A receptor = molecular target: T1, human 5-HT5A receptor (Homo sapiens, UniProt P47898); experiment: Test of human 5-HT5A receptor binding inhibition ([3H]5-CT, HEK293 cell membrane); conditions: [3H]5-CT binding, membrane of HEK293 cell expressing human 5-HT5A receptor
T1 construct: expressed in transfected cells; membrane preparation
Protocol: An ORF of a human 5-HT5A receptor (Genbank AF498985) was cloned from a human hippocampal cDNA library, and then inserted into a pCR2.1 vector (Invitrogen), and Escherichia coli having the plasmid was mass cultured. Next, the human 5-HT5A receptor full-length cDNA sequence was analyzed, recombined into a pCDNA3.1 vector (Invitrogen) as an expression vector, and mass cultured. A human embryonic kidney-induced cell HEK293 cell (ATCC) was seeded, and the resulting expression plasmid (1 μg) above was added thereto together with LIPOFECTAMINE 2000 (Invitrogen; 2 μl), a gene was introduced into the HEK293 cell, and then Geneticin (G418 sulfate 500 μg/ml; Kanto Chemical Co., Inc.) was used as a drug-resistant marker to screen the expressing cell. Thus prepared gene-expressing recombinant cell was cultured in a D-MEM, 10% FCS, 1% Pc./Sm., 500 μg/ml G418 culture medium for 3 days. This experimental operation was conducted in accordance with a gene operation experiment manual of a known method (Sambrook, J. et al, Molecular Cloning-A Laboratory Manual“, Cold Spring Harabor Laboratory, NY, 1989), etc., an instruction appended in a reagent or the like.
(1) Preparation of a Membrane from an HEK293 Cell Forcibly Expressing a Human 5-HT5A Receptor
An HEK293 cell forcibly expressing a human 5-HT5A receptor was cultured in an F500 plate, and scraped for collection using a scraper. After centrifugation, the precipitates were collected and an incubation buffer (50 mM Tris (HCl) PH 7.4, 10 mM Mg504, 0.5 mM EDTA) was added thereto. After homogenization, it was further centrifuged, an incubation buffer was added to the precipitate, and the mixture was well suspended. These operations were repeatedly conducted, the protein concentration was then measured, and the preparation of a membrane was completed.
(2) Experiment on Human 5-HT5A Receptor Binding Inhibition
The compound to be tested (0.3 to 300 nM) and a 100 μM 5-CT solution in DMSO were added to a 96-well plate at 2 μl/well. The number of the wells to be measured under the same condition in one experiment was set at 2, and an average value thereof was used. It was suspended in an incubation buffer, and a HEK293 cell membrane forcibly expressing a human 5-HT5A receptor that had been prepared at 200 μg/ml was added thereto at 100 μl/well. The mixture was incubated at room temperature for 15 minutes, and a [^3H]5-CT solution (2 nM [^3H]5-CT, an incubation buffer) was then added thereto at 100 μl/well.
Separate from this, 100 μl of the solution was dispersed to a liquid scintillation vial, 2 ml of Aquasol II (registered trademark) was added thereto, followed by stirring, and the radioactivity was then measured with a liquid scintillation counter. The solution was incubated at 37° C. for 60 minutes. The reaction liquid was sucked to a 96-well GF/C filter plate that had been preliminarily treated with 0.2% polyethyleneimine, and washed six times with an ice-cooled 50 mM Tris (pH 7.5) buffer. The GF/C filter plate was dried.
MicroscintTMPS (registered trademark) was added thereto at 40 μl/well. The radioactivity remaining on the GF/C filter plate was measured in a top counter.
For the inhibitory activity for the binding of the [^3H]5-CT by the compound to be tested in each experiment, IC50 value was calculated by taking the radioactivity when only DMSO was added as 0% inhibition, and the radioactivity when 1 μM 5-CT was added as 100% inhibition. Apart from this, a Ki value was calculated from the Kd value of the [^3H]5-CT that had been determined by Scatchard analysis.
Ki=IC50 (1+Concentration of the ligands added/Kd (4.95 nM))

MAP-induced overactivity = experiment: MAP (methane phetamine)-induced overactivity in mice, kinetic momentum by infrared sensor; type: in vivo; conditions: mouse, oral, dose 0.01 mg/kg; MAP 1 mg/kg i.p.; total 60 minutes, P<0.05
Protocol: (§1) Evaluation of Various Drugs Relative to a Drug for Increasing the Kinetic Momentum of Mice (Methane Phetamine, MK-801) (Method for Measuring a Kinetic Momentum by Discharge of an Infrared Ray)
(§2) The effect of improving the positive symptoms and the negative symptoms of schizophrenia by the compound (I) was evaluated by measuring the kinetic momentum that had been […] with administration of the compound in a model causing the symptoms by methane phetamine (which is hereinafter simply referred to as MAP) and MK-801.
(§3) Species: Male ICR mouse/number of animals (number of animals per group): 8 to 12 animals per group
(§4) The animal was left in a laboratory for 1 hour or longer to be acclimated to the environment, and the animal was taken from the feeding cage, orally administered with a compound to be tested, and then returned to the feeding cage. After 30 minutes, it was put into a cage for measurement, and the kinetic momentum of just the compound to be tested was measured. Further, after 30 minutes, the animal was taken out, and intraperitoneally administered with a drug for increasing kinetic momentum (MAP; 1 mg/kg or MK-801; 0.3 mg/kg, all dissolved in physiological saline), and its kinetic momentum was measured for a certain time (60 minutes) using a device for measuring the kinetic momentum by means of an infrared ray sensor (CompACT AMS, Muromachi Kikai Co., Ltd.). Also, the test was carried out under non-fasting.
(§5) The 60 minutes of measurements was classified into three groups: a first half 30 minutes, a second half 30 minutes, and a total 60 minutes. For a normal mouse (a mouse administered with physiological saline) and a mouse administered with the drug for increasing kinetic momentum, a Student's T test was used for evaluation in each interval. For the group administered with the compound to be tested, a solvent (vehicle) group and a Dunnett's T test were carried out and evaluated. For the evaluation, in case where there was a significant (P<0.05) difference for the total 60 minutes, it was considered to be effective.

[1] = test system: MK-801-induced overactivity; experiment: MK-801-induced overactivity in mice, kinetic momentum by infrared sensor; type: in vivo; conditions: mouse, oral, MK-801 0.3 mg/kg i.p.
Protocol: as §1, §2, §3, §4, §5

[2] = test system: scopolamine-induced spontaneous alternation behavior disorder; experiment: Scopolamine-induced spontaneous alternation behavior disorder in mice (Y-maze); type: in vivo; conditions: mouse, scopolamine 0.5 mg/kg i.p.
Protocol: An Improvement Effect for Scopolamine-Induced or MK-801-Induced Spontaneous Alternation Behavior in Mice
An improvement effect of the compound (I) for cognitive impairment was evaluated by the above-described well-known test method as a model of a short-term learning disorder.
Species: Male ddY mice/number of animals (number of animals per group): 6 to 10 animals per group
A mouse was introduced into the laboratory 1 hour before starting the test. The mouse was placed at one end of an arm in a Y-maze having equal lengths of arms in three directions, and was able freely explored for 8 minutes with the number of the entries into the arms were counted. Furthermore, a spontaneous alternation behavior was defined as consecutive entries into each of the three arms, and an alternation rate was defined as the percentage of the number of time of this behavior relative to the total number of the entries, and calculated by the following equation.
Alternation rate (%)=(number of spontaneous alternation behaviors/total number of entries−2)×100.
The compound to be tested was orally administered 50 minutes before the initiation of the test, and 30 minutes later, 0.5 mg/kg of scopolamine or 0.15 mg/kg of MK-801 (in the normal group, physiological saline) was intraperitoneally administered. Furthermore, for the normal group (the group administered with physiological saline) and the control group (the group administered with 0.5 mg/kg scopolamine or 0.15 mg/kg MK-801), a solvent (vehicle) was orally administered when the compound to be tested was administered. For the normal group, physiological saline was intraperitoneally administered when scopolamine was administered.
The alternation rate (%) is expressed as an average value in each group (mean±SE). In regard to the alternation rate (%), in the case where a significant difference between the normal group and the control group (Student's T test) was found, it was considered that there was an establishment of learning disorder by the administration of scopolamine or MK-801. By carrying out the Dunnett evaluation for the group administered with the compound to be tested relative to the control group, the presence or absence of the learning disorder action of the compound to be tested was determined. In each evaluation, it was considered that there was a tendency at p<0.10, and there was a significant difference at p<0.05.

[3] = dose 0.01 mg/kg, total 60 minutes, P<0.05

T1 sequence (P47898 whole entry): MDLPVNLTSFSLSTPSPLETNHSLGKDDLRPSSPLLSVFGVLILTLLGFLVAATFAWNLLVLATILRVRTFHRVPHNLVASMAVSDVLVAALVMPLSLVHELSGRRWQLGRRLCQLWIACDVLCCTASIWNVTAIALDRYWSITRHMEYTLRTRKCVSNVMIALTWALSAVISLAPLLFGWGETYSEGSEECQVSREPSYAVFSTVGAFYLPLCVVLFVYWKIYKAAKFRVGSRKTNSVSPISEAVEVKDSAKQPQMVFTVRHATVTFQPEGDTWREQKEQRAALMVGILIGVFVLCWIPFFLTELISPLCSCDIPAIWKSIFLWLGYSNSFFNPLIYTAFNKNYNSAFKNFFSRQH

SMILES | Ki (human 5-HT5A receptor) [µM] | inhibition of MAP-induced overactivity (MAP-induced overactivity) | inhibition of MK-801-induced overactivity [1, 3] | further results
COc1cc2c(cc1OC)C(=O)C(CC1CCN(Cc3ccccc3)CC1)C2 (stereo not shown) [donepezil, reference compound] | – | – | – | inhibition of scopolamine-induced spontaneous alternation behavior disorder ([2]; dose 0.25 mg/kg): significantly inhibited
NC(N)=NC(=O)c1ccc2c3ccccc3n(C3CCCCC3)c2c1 [Example 24] | ≤ 0.05 | – | – | inhibition of MK-801-induced overactivity ([1]; dose 0.1 mg/kg): significantly inhibited
NC(N)=NC(=O)c1ccc2c3ccccc3n(Cc3cccs3)c2c1 [Example 135] | ≤ 0.05 | significantly inhibited | significantly inhibited | inhibition of scopolamine-induced spontaneous alternation behavior disorder ([2]; oral, dose 0.003 mg/kg): significantly inhibited
NC(N)=NC(=O)c1cc(Cl)c2c3ccccc3n(C3CCOCC3)c2c1 [Example 150] | ≤ 0.05 | – | – | inhibition of MK-801-induced overactivity ([1]; dose 0.1 mg/kg): significantly inhibited
CC(=O)n1c2ccccc2c2ccc(C(=O)N=C(N)N)cc21 [Example 26] | ≤ 0.05 | – | – | inhibition of scopolamine-induced spontaneous alternation behavior disorder ([2]; oral, dose 0.03 mg/kg): significantly inhibited
CC(C)n1c2cc(C(=O)N=C(N)N)ccc2c2c(Cl)cccc21 [Example 59] | ≤ 0.05 | – | – | inhibition of scopolamine-induced spontaneous alternation behavior disorder ([2]; oral, dose 0.03 mg/kg): significantly inhibited

Further lines, with some results ahead:

Ki (human 5-HT5A receptor) [µM] | SMILES | inhibition of MAP-induced overactivity (MAP-induced overactivity) | inhibition of MK-801-induced overactivity [1, 3] | further results
0.00027 | Cc1cc(C(=O)N=C(N)N)cc2c1c1ccccc1n2C1CCOCC1 [Example 106] | significantly inhibited | – | inhibition of MK-801-induced overactivity ([1]; dose 0.03 mg/kg): significantly inhibited; inhibition of scopolamine-induced spontaneous alternation behavior disorder ([2]; oral, dose 0.0001 mg/kg): significantly inhibited
≤ 0.05 | COc1cccc(CN/C(N)=N/C(=O)c2ccc3c4ccccc4n(C4CCOCC4)c3c2)c1 [Example 194] | – | – | inhibition of MK-801-induced overactivity ([1]; dose 0.03 mg/kg): significantly inhibited
≤ 0.05 | N/C(=N\C(=O)c1ccc2c3ccccc3n(C3CCOCC3)c2c1)NCC1CC1 [Example 178] | – | significantly inhibited | –
≤ 0.05 | NC(N)=NC(=O)c1cc(F)c2c3c(F)cccc3n(C3CCOCC3)c2c1 [Example 146] | – | significantly inhibited | –
≤ 0.05 | Cl.Cl.NC(N)=NC(=O)c1ccc2c3ccccc3n(C3CCNCC3)c2c1 [Example 6, N-(diaminomethylene)-9-piperidin-4-yl-9H-carbazole-2-carboxamide dihydrochloride] | significantly inhibited | significantly inhibited | inhibition of scopolamine-induced spontaneous alternation behavior disorder ([2]; oral, dose 0.003 mg/kg): significantly inhibited
0.00056 | NC(N)=NC(=O)c1ccc2c3c(F)cccc3n(C3CCOCC3)c2c1 [Example 86] | significantly inhibited | significantly inhibited | inhibition of scopolamine-induced spontaneous alternation behavior disorder ([2]; oral, dose 0.0001 mg/kg): significantly inhibited
